Reference: patent publication US12502362B2, “Inhibitors of nucleotidyltransferase superfamily enzymes as antibiotics” (priority 2017, dated 2025)
Where two headings read alike, the source gives them in different places.

How the values were obtained:
[1] = test system: Enterobacter cloacae complex; assay: Antibiotic susceptibility of Enterobacter cloacae complex strain; format: cell-based; settings: Ecc1 (Enterobacter cloacae complex)
From the text: (§1) All these MDR-bacteria are at least resistant to two classes of the antibiotics among five groups and/or specific antibiotics including quinolones/fluorquinolones, carbapenems, cephalosporins, aminoglycosides and piperacillin-tazobactam.

[2] = test system: Citrobacter koseri; assay: Antibiotic susceptibility of Citrobacter koseri strain; format: cell-based; settings: Ck1 (Citrobacter koseri)
From the text: as §1

[3] = test system: Coagulase negative Staphylococcus; assay: Antibiotic susceptibility of coagulase negative Staphylococcus strains; format: cell-based
[4] = test system: Morganella morganii; assay: Antibiotic susceptibility of Morganella morganii strain; format: cell-based; settings: Mm1 (Morganella morganii)
From the text: as §1

[5] = test system: Staphylococcus epidermidis; format: cell-based
Description: (§2) It was also tested whether compounds #63 and #285 can inhibit other coagulase-negative Staphylococcus (CNS) including S. epidermidis, S. hominis, etc. […].

[6] = test system: Staphylococcus hominis; format: cell-based
Description: as §2

[7] = test system: MDR Acinetobacter baumannii; format: cell-based
From the text: as §1

[8] = test system: MDR E. coli; format: cell-based
From the text: as §1

[9] = test system: Klebsiella pneumonia; assay: Antibiotic susceptibility of Klebsiella pneumonia strains; format: cell-based
From the text: as §1

[10] = test system: S. aureus ATCC strains and MRSA; format: cell-based, Staphylococcus aureus
[11] = CNS1 (Coagulase negative Staphylococcus)
[12] = CNS2 (Coagulase negative Staphylococcus)

## O=C1CN(/N=C/c2ccc([N+](=O)[O-])o2)C(=O)N1 [NIT, Nitrofurantoin]
[1]
  Antibiotic susceptibility: S
[2]
  Antibiotic susceptibility: R
[3]; [11]
  Antibiotic susceptibility: S
[3]; [12]
  Antibiotic susceptibility: S
[4]
  Antibiotic susceptibility: R
[5]
  Antibiotic susceptibility: S
[6]
  Antibiotic susceptibility: S
[7]; Ab1 (Acinetobacter baumannii)
  Antibiotic susceptibility: R
[7]; Ab2 (Acinetobacter baumannii)
  Antibiotic susceptibility: R
[7]; Ab3 (Acinetobacter baumannii)
  Antibiotic susceptibility: R
[7]; Ab4 (Acinetobacter baumannii)
  Antibiotic susceptibility: R
[7]; Ab5 (Acinetobacter baumannii)
  Antibiotic susceptibility: R
[8]; Ec1 (E. coli)
  Antibiotic susceptibility: S
[8]; Ec2 (E. coli)
  Antibiotic susceptibility: S
[8]; Ec3 (E. coli)
  Antibiotic susceptibility: S
[8]; Ec4 (E. coli)
  Antibiotic susceptibility: S
[8]; Ec5 (E. coli)
  Antibiotic susceptibility: S
[9]; Kp1 (Klebsiella pneumonia)
  Antibiotic susceptibility: S
[9]; Kp6 (Klebsiella pneumonia)
  Antibiotic susceptibility: R
[10]; S. aureus ATCC 25923
  Antibiotic susceptibility: S
[10]; S. aureus ATCC 29213
  Antibiotic susceptibility: S
[10]; S. aureus ATCC BAA 976
  Antibiotic susceptibility: S
[10]; S. aureus ATCC BAA 977
  Antibiotic susceptibility: S
[10]; S. aureus ATCC BAA 1026
  Antibiotic susceptibility: S
[10]; Sa1 (MRSA)
  Antibiotic susceptibility: S
[10]; Sa2 (MRSA)
  Antibiotic susceptibility: S
[10]; Sa3 (MRSA)
  Antibiotic susceptibility: S
[10]; Sa6 (MRSA)
  Antibiotic susceptibility: S
[10]; Sa7 (MRSA)
  Antibiotic susceptibility: S
[10]; Sa9 (MRSA)
  Antibiotic susceptibility: S
[10]; Sa11 (MRSA)
  Antibiotic susceptibility: S
[10]; Sa12 (MRSA)
  Antibiotic susceptibility: S
[10]; Sa14 (MRSA)
  Antibiotic susceptibility: S
[10]; Sa15 (MRSA)
  Antibiotic susceptibility: S
[10]; Sa16 (MRSA)
  Antibiotic susceptibility: S
[10]; Sa17 (MRSA)
  Antibiotic susceptibility: S
[10]; Sa18 (MRSA)
  Antibiotic susceptibility: S
[10]; Sa19 (MRSA)
  Antibiotic susceptibility: S
[10]; Sa20 (MRSA)
  Antibiotic susceptibility: S
[10]; Sa21 (MRSA)
  Antibiotic susceptibility: S
[10]; Sa22 (MRSA)
  Antibiotic susceptibility: S
[10]; Sa23 (MRSA)
  Antibiotic susceptibility: S

## Gentamicin
[1]
  Antibiotic susceptibility: R
[2]
  Antibiotic susceptibility: R
[3]; [11]
  Antibiotic susceptibility: S
[3]; [12]
  Antibiotic susceptibility: S
[4]
  Antibiotic susceptibility: R
[5]; Se1 (Staphylococcus epidermidis)
  Antibiotic susceptibility: S
[5]; Se2 (Staphylococcus epidermidis)
  Antibiotic susceptibility: S
[5]; Se3 (Staphylococcus epidermidis)
  Antibiotic susceptibility: R
[5]; Se4 (Staphylococcus epidermidis)
  Antibiotic susceptibility: R
[5]; Se5 (Staphylococcus epidermidis)
  Antibiotic susceptibility: I
[6]; Sh1 (Staphylococcus hominis)
  Antibiotic susceptibility: S
[6]; Sh2 (Staphylococcus hominis)
  Antibiotic susceptibility: S
[6]; Sh3 (Staphylococcus hominis)
  Antibiotic susceptibility: S
[7]; Ab1 (Acinetobacter baumannii)
  Antibiotic susceptibility: S
[7]; Ab2 (Acinetobacter baumannii)
  Antibiotic susceptibility: R
[7]; Ab3 (Acinetobacter baumannii)
  Antibiotic susceptibility: R
[7]; Ab4 (Acinetobacter baumannii)
  Antibiotic susceptibility: R
[7]; Ab5 (Acinetobacter baumannii)
  Antibiotic susceptibility: R
[8]; Ec1 (E. coli)
  Antibiotic susceptibility: R
[8]; Ec2 (E. coli)
  Antibiotic susceptibility: R
[8]; Ec3 (E. coli)
  Antibiotic susceptibility: R
[8]; Ec4 (E. coli)
  Antibiotic susceptibility: S
[8]; Ec5 (E. coli)
  Antibiotic susceptibility: S
[9]; Kp1 (Klebsiella pneumonia)
  Antibiotic susceptibility: S
[9]; Kp6 (Klebsiella pneumonia)
  Antibiotic susceptibility: S
[10]; S. aureus ATCC 25923
  Antibiotic susceptibility: S
[10]; S. aureus ATCC 29213
  Antibiotic susceptibility: S
[10]; S. aureus ATCC BAA 976
  Antibiotic susceptibility: S
[10]; S. aureus ATCC BAA 977
  Antibiotic susceptibility: S
[10]; S. aureus ATCC BAA 1026
  Antibiotic susceptibility: R
[10]; Sa1 (MRSA)
  Antibiotic susceptibility: S
[10]; Sa2 (MRSA)
  Antibiotic susceptibility: S
[10]; Sa3 (MRSA)
  Antibiotic susceptibility: S
[10]; Sa5 (MRSA)
  Antibiotic susceptibility: S
[10]; Sa6 (MRSA)
  Antibiotic susceptibility: S
[10]; Sa7 (MRSA)
  Antibiotic susceptibility: S
[10]; Sa8 (MRSA)
  Antibiotic susceptibility: S
[10]; Sa9 (MRSA)
  Antibiotic susceptibility: S
[10]; Sa10 (MRSA)
  Antibiotic susceptibility: S
[10]; Sa11 (MRSA)
  Antibiotic susceptibility: S
[10]; Sa12 (MRSA)
  Antibiotic susceptibility: S
[10]; Sa14 (MRSA)
  Antibiotic susceptibility: S
[10]; Sa15 (MRSA)
  Antibiotic susceptibility: S
[10]; Sa16 (MRSA)
  Antibiotic susceptibility: S
[10]; Sa17 (MRSA)
  Antibiotic susceptibility: S
[10]; Sa18 (MRSA)
  Antibiotic susceptibility: S
[10]; Sa19 (MRSA)
  Antibiotic susceptibility: S
[10]; Sa20 (MRSA)
  Antibiotic susceptibility: S
[10]; Sa21 (MRSA)
  Antibiotic susceptibility: S
[10]; Sa22 (MRSA)
  Antibiotic susceptibility: S
[10]; Sa23 (MRSA)
  Antibiotic susceptibility: S

## Trimethoprim-Sulfamethoxazole [SXT]
[1]
  Antibiotic susceptibility: S
[2]
  Antibiotic susceptibility: R
[3]; [11]
  Antibiotic susceptibility: S
[3]; [12]
  Antibiotic susceptibility: S
[4]
  Antibiotic susceptibility: R
[5]
  Antibiotic susceptibility: R
[6]
  Antibiotic susceptibility: R and S
[7]; Ab1 (Acinetobacter baumannii)
  Antibiotic susceptibility: R
[7]; Ab2 (Acinetobacter baumannii)
  Antibiotic susceptibility: R
[7]; Ab3 (Acinetobacter baumannii)
  Antibiotic susceptibility: R
[7]; Ab4 (Acinetobacter baumannii)
  Antibiotic susceptibility: R
[7]; Ab5 (Acinetobacter baumannii)
  Antibiotic susceptibility: R
[8]; Ec1 (E. coli)
  Antibiotic susceptibility: R
[8]; Ec2 (E. coli)
  Antibiotic susceptibility: R
[8]; Ec3 (E. coli)
  Antibiotic susceptibility: R
[8]; Ec4 (E. coli)
  Antibiotic susceptibility: S
[8]; Ec5 (E. coli)
  Antibiotic susceptibility: R
[9]; Kp1 (Klebsiella pneumonia)
  Antibiotic susceptibility: R
[9]; Kp6 (Klebsiella pneumonia)
  Antibiotic susceptibility: R
[10]; S. aureus ATCC 25923
  Antibiotic susceptibility: S
[10]; S. aureus ATCC 29213
  Antibiotic susceptibility: S
[10]; S. aureus ATCC BAA 976
  Antibiotic susceptibility: S
[10]; S. aureus ATCC BAA 977
  Antibiotic susceptibility: S
[10]; S. aureus ATCC BAA 1026
  Antibiotic susceptibility: R
[10]; Sa1 (MRSA)
  Antibiotic susceptibility: R
[10]; Sa2 (MRSA)
  Antibiotic susceptibility: S
[10]; Sa3 (MRSA)
  Antibiotic susceptibility: S
[10]; Sa5 (MRSA)
  Antibiotic susceptibility: S
[10]; Sa6 (MRSA)
  Antibiotic susceptibility: S
[10]; Sa7 (MRSA)
  Antibiotic susceptibility: S
[10]; Sa8 (MRSA)
  Antibiotic susceptibility: S
[10]; Sa9 (MRSA)
  Antibiotic susceptibility: S
[10]; Sa10 (MRSA)
  Antibiotic susceptibility: S
[10]; Sa11 (MRSA)
  Antibiotic susceptibility: S
[10]; Sa12 (MRSA)
  Antibiotic susceptibility: S
[10]; Sa14 (MRSA)
  Antibiotic susceptibility: S
[10]; Sa15 (MRSA)
  Antibiotic susceptibility: R
[10]; Sa16 (MRSA)
  Antibiotic susceptibility: S
[10]; Sa17 (MRSA)
  Antibiotic susceptibility: S
[10]; Sa18 (MRSA)
  Antibiotic susceptibility: S
[10]; Sa19 (MRSA)
  Antibiotic susceptibility: S
[10]; Sa20 (MRSA)
  Antibiotic susceptibility: S
[10]; Sa21 (MRSA)
  Antibiotic susceptibility: S
[10]; Sa22 (MRSA)
  Antibiotic susceptibility: S
[10]; Sa23 (MRSA)
  Antibiotic susceptibility: S
[10]; number of resistant strains out of 21 MRSA strains
  MRSA strains resistant: 2/21
